Converted amounts (≈) assume the structure as drawn. Where two headings read alike, the source gives them in different places.
Key:
P. nigrescens ATCC 33563 = assay: MIC against anaerobic bacteria; format: cell-based, Prevotella nigrescens; details: Prevotella nigrescens, ATCC33563, read-out: MIC P. nigrescens ATCC 33563
C. sporogenes ATCC 15579 = assay: microbe, parasite or virus in culture; format: cell-based, Clostridium sporogenes; details: Clostridium sporogenes, ATCC15579, read-out: MIC C. sporogenes ATCC 15579
[1] = test system: B. thetaiotaomicron ATCC 29148; assay: microbe, parasite or virus in culture; format: cell-based; details: Bacteroides thetaiotaomicron, ATCC29148, read-out: MIC B. thetaiotaomicron ATCC 29148
A. baumannii M2 = assay: MIC against aerobic bacteria; format: cell-based; details: Acinetobacter baumannii, M2, read-out: MIC A. baumannii M2
[2] = test system: C. clostridioforme ATCC 25537; assay: MIC against anaerobic bacteria; format: cell-based, Clostridium clostridioforme; details: Clostridium, ATCC25537, read-out: MIC C. clostridioforme ATCC 25537
B. subtilis ATCC 6051 = assay: MIC against aerobic bacteria; format: cell-based, Bacillus subtilis; details: Bacillus subtilis, ATCC6051, read-out: MIC B. subtilis ATCC 6051
[3] = test system: embryonic kidney HEK 293T/17; assay: In vitro cytotoxicity MTS assay, HEK 293T/17
[4] = test system: Clostridium difficile strain 4118; assay: Minimum bactericidal concentration (MBC), logarithmic- and stationary-phase cells; format: cell-based; details: Clostridioides difficile, 3-log reduction of inoculum
Method: The MBClog values of the protonophores were determined to be 0.25-2 μg/mL (˜4 to 8-fold greater than their respective MIC values).
Clostridium difficile strain 4118 was grown to OD600˜0.4-0.5 (logarithmic phase) or for 24 h (stationary phase), and thereafter added to two-fold serial dilutions of test compounds. Cultures were incubated for 20-24 h at 37° C., and then viable counts were enumerated on BHIS agar plates. […] MBC measurements were performed in duplicate.

P. distasonis ATCC 8503 = assay: MIC against anaerobic bacteria; format: cell-based, Parabacteroides distasonis; details: Parabacteroides distasonis, ATCC8503, read-out: MIC P. distasonis ATCC 8503
liver carcinoma HepG2 = assay: In vitro cytotoxicity MTS assay, HepG2
sheep erythrocytes = assay: Hemolysis assay; details: tested at 32 μg/mL; 37° C., 1 h
Method: Sheep red blood cells (Innovative Research, Novi, Mich., USA) were washed three times with PBS pH 7.4. A 3% cell suspension in PBS (100 μL) was added to test compounds in PBS (100 μL), and then incubated at 37° C. for 1 h. The plate was centrifuged at 500×g for 10 min, and supernatants (100 μL) were transferred to a clean 96-well plate. Hemolysis was determined by measuring absorbance at 540 nm, with 1% Triton X-100 as the positive control and 0.5% DMSO in PBS as the negative control. Hemolysis assays were performed in triplicate.

P. aeruginosa PAO1 = assay: MIC against aerobic bacteria; format: cell-based, Pseudomonas aeruginosa; details: Pseudomonas aeruginosa, PAO1, read-out: MIC P. aeruginosa PAO1
S. aureus RN4220 = assay: MIC against aerobic bacteria; format: cell-based; details: Staphylococcus aureus, RN4220; aerobic; read-out: MIC S. aureus RN4220
[5] = test system: C. difficile 4118 (CD4118, ATCC BAA-1870, BI/NAP1/027); assay: MIC by broth microdilution against C. difficile 4118; format: cell-based, Clostridium difficile; details: Clostridioides difficile
S. epidermidis 1457 = assay: MIC against aerobic bacteria; format: cell-based; details: Staphylococcus epidermidis, 1457, read-out: MIC S. epidermidis 1457
[6] = in vivo; cited from earlier work

Compound `O=C(Nc1ccc(Oc2ccc(Cl)cc2)c(Cl)c1)c1cc(I)cc(I)c1O` [Rafoxanide, rafoxanide, reference compound] has an MIC (P. nigrescens ATCC 33563) of 8 µg/mL (≈ 12.8 µM), an MIC (C. sporogenes ATCC 15579) of 1 µg/mL (≈ 1.6 µM) and an MIC [1] greater than 32 µg/mL. The MIC (A. baumannii M2) was greater than 32 µg/mL, the MIC [2] was 1 µg/mL (≈ 1.6 µM) and the MIC (B. subtilis ATCC 6051) was no more than 0.03 µg/mL. For the same compound, the “cell viability HEK 293T/17 (MTS)” value ([3]; 8 μg/mL, 16 h) was “no apparent effect on mammalian cell viability”, the “in vitro toxicity toward HEK 293T/17 compared with niclosamide” value ([3]; relative to niclosamide) was “comparably lower in vitro toxicities” and the MBC ([4]; logarithmic-phase cells of strain 4118, read-out: MBClog) was 0.5 µg/mL (≈ 0.799 µM). For the same compound, the MBC ([4]; stationary-phase cells of strain 4118, read-out: MBCstat) was 1 µg/mL (≈ 1.6 µM), the MIC (P. distasonis ATCC 8503) was 8 µg/mL (≈ 12.8 µM) and the “cell viability HepG2 (MTS)” value (liver carcinoma HepG2; 8 μg/mL, 16 h) was “no apparent effect on mammalian cell viability”. For the same compound, the “in vitro toxicity toward HepG2 compared with niclosamide” value (liver carcinoma HepG2; relative to niclosamide) was “comparably lower in vitro toxicities”, the “rupture of red blood cells (hemolysis)” value (sheep erythrocytes) was “did not cause rupture of red blood cells” and the MIC (P. aeruginosa PAO1) was greater than 32 µg/mL. It also gave an MIC (S. aureus RN4220) of 0.25 µg/mL (≈ 0.399 µM), an MIC ([5]; ATCCBAA1870) of 0.13 µg/mL (≈ 0.208 µM) and an MIC ([5]; ATCCBAA1870, read-out: MIC C. difficile 4118) of 0.13 µg/mL (≈ 0.208 µM). For the same compound, the MIC (S. epidermidis 1457) was no more than 0.03 µg/mL.
In the case of `Cc1cc(C(C#N)c2ccc(Cl)cc2)c(Cl)cc1NC(=O)c1cc(I)cc(I)c1O` (stereo not drawn) [Closantel, reference compound], the MIC (C. sporogenes ATCC 15579) is given as 1 µg/mL (≈ 1.51 µM), the “excreted unchanged in the feces” value [6] is given as no more than 90% and the MIC [1] is given as greater than 32 µg/mL. For the same compound, the MIC (S. aureus RN4220) was 0.25 µg/mL (≈ 0.377 µM) and the MIC ([5]; ATCCBAA1870, Table 1, strain 4118, 20-24 h, 37° C., read-out: MIC C. difficile 4118) was 0.25 µg/mL (≈ 0.377 µM).

Reference: patent US10792272B2, “Methods for treatment of Clostridium difficile infections” (priority 2016, dated 2020)
